Source: PubChem BioAssay (NCI)
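The compound was tested at five concentrations on cells cultured in 96-well plates, with a 48-hour exposure period. TGI: total growth inhibition.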

What was measured:
Experiment in all cases: NCI-60 cell line screen, 48 h
[1] = tested on: SK-MEL-5 melanoma
[2] = tested on: OVCAR-4 ovarian
[3] = tested on: HS 578T breast
[4] = tested on: HL-60(TB) leukemia
[5] = tested on: SF-295 CNS
[6] = tested on: MDA-N
[7] = tested on: BT-549 breast
[8] = tested on: SNB-19 CNS
[9] = tested on: K-562 leukemia
[10] = tested on: M14 melanoma
[11] = tested on: NCI-H23 lung
[12] = tested on: COLO 205 colon
[13] = tested on: HT29 colon
[14] = tested on: MALME-3M melanoma
[15] = tested on: UO-31 renal
[16] = tested on: OVCAR-5 ovarian
[17] = tested on: MCF7 breast
[18] = tested on: SNB-75 CNS
[19] = tested on: NCI-H522 lung
[20] = tested on: LOX IMVI melanoma
[21] = tested on: SN12C renal
[22] = tested on: A498 renal
[23] = tested on: CAKI-1 renal
[24] = tested on: HCT-116 colon
[25] = tested on: MDA-MB-231 breast
[26] = tested on: SK-MEL-2 melanoma
[27] = tested on: TK-10 renal
[28] = tested on: UACC-62 melanoma
[29] = tested on: EKVX NSCLC
[30] = tested on: A549 NSCLC
[31] = tested on: KM12 colon
[32] = tested on: PC-3 prostate
[33] = tested on: HCC-2998 colon
[34] = tested on: NCI-H226 lung
[35] = tested on: NCI-H460 lung
[36] = tested on: HOP-62 NSCLC
[37] = tested on: ACHN renal
[38] = tested on: OVCAR-3 ovarian
[39] = tested on: OVCAR-8 ovarian
[40] = tested on: NCI/ADR-RES ovarian
[41] = tested on: HOP-92 NSCLC
[42] = tested on: SF-268 CNS
[43] = tested on: RXF 393 renal
[44] = tested on: RPMI-8226 leukemia
[45] = tested on: DU-145 prostate
[46] = tested on: 786-0 renal
[47] = tested on: SF-539 CNS
[48] = tested on: SW-620 colon
[49] = tested on: MOLT-4 leukemia
[50] = tested on: MDA-MB-435
[51] = tested on: SK-MEL-28 melanoma
[52] = tested on: SR leukemia
[53] = tested on: IGROV1 ovarian
[54] = tested on: UACC-257 melanoma
[55] = tested on: U251 CNS
[56] = tested on: T-47D breast
[57] = tested on: SK-OV-3 ovarian
[58] = tested on: HCT-15 colon

For `Cc1ccc2c(c1)nc1n2C(N)=Nc2ccccc2S1`, the TGI [1] was > 100 µM, the TGI [2] was > 100 µM and the TGI [3] was > 100 µM. For the same compound, the TGI [4] was 6.86 µM, the TGI [5] was > 100 µM and the TGI [6] was > 100 µM. The TGI [7] was > 100 µM, the TGI [8] was > 100 µM and the TGI [9] was > 100 µM. The TGI [10] was > 100 µM, the TGI [11] was > 100 µM and the TGI [12] was > 100 µM. The TGI [13] was > 100 µM, the TGI [14] was > 100 µM and the TGI [15] was > 100 µM. For the same compound, the TGI [16] was > 100 µM, the TGI [17] was > 100 µM and the TGI [18] was > 100 µM. For the same compound, the TGI [19] was > 100 µM, the TGI [20] was > 100 µM and the TGI [21] was > 100 µM. The TGI [22] was > 91.6 µM, the TGI [23] was > 100 µM and the TGI [24] was > 100 µM. The TGI [25] was > 100 µM, the TGI [26] was > 100 µM and the TGI [27] was > 100 µM. For the same compound, the TGI [28] was > 100 µM, the TGI [29] was > 100 µM and the TGI [30] was > 100 µM. For the same compound, the TGI [31] was > 100 µM, the TGI [32] was > 100 µM and the TGI [33] was > 100 µM. The TGI [34] was > 100 µM, the TGI [35] was > 100 µM and the TGI [36] was > 100 µM. For the same compound, the TGI [37] was > 100 µM, the TGI [38] was > 100 µM and the TGI [39] was > 100 µM. For the same compound, the TGI [40] was > 100 µM, the TGI [41] was > 100 µM and the TGI [42] was > 100 µM. For the same compound, the TGI [43] was > 100 µM, the TGI [44] was > 100 µM and the TGI [45] was > 100 µM. For the same compound, the TGI [46] was > 100 µM, the TGI [47] was > 100 µM and the TGI [48] was > 100 µM. For the same compound, the TGI [49] was > 100 µM, the TGI [50] was > 100 µM and the TGI [51] was > 100 µM. For the same compound, the TGI [52] was > 100 µM, the TGI [53] was > 100 µM and the TGI [54] was > 100 µM. The TGI [55] was > 100 µM, the TGI [56] was > 100 µM and the TGI [57] was > 100 µM. For the same compound, the TGI [58] was > 100 µM.
